Experimental data as given in PMC9130233, “An inhibitor of RORγ for chronic pulmonary obstructive disease treatment” (Scientific Reports, 2022).

Experiments:
[1] = molecular target: RORα (Homo sapiens, UniProt P35398); assay: Transactivation assay, Gal4 DBD luciferase reporter (Indigo); type: cell-based
Description: (§1) Based on the homology of the ligand binding domains, 3 different isoforms of ROR (hRORα, hRORβ and hRORγ) are reported. Small variations in the LBD regions possibly lead to differences in competitive binding between the nuclear receptors of the ROR isoforms (Fig. 1b). Similar to the assessment of RORγ binding assay, TR-FRET binding assays were also used to assess the affinity of PCCR-1 for other ROR isoforms. […] This was reconfirmed in cellular functional assays for the selected isoforms and nuclear receptors using Gal4 DBD with luciferase reporter system from Indigo (PA, USA). […] In addition, both cellular agonist and antagonist effects as well as for enzyme activity were evaluated with a known reference compound for each target, using a radiolabeled method (Eurofins Cerep, France, Table 1).

[2] = system: hFXR; assay: Nuclear receptors: functional assay, hFXR antagonism; type: cell-based, human; settings: nuclear receptors: functional assays
Description: as §1

[3] = system: mPPARγ; assay: Nuclear receptors: functional assay, mPPARγ agonism; type: cell-based, mouse; parameters: key: NSE No significant effect; V wk very weak (very low-level agonist activity seen with mPPARγ); settings: nuclear receptors: functional assays
Description: as §1

[4] = system: total leukocytes, neutrophils and macrophages in BAL fluid of cigarette smoke exposed mice; assay: Acute cigarette smoke induced pulmonary inflammation mice model; type: in vivo, mouse
Description: Cigarette smoke exposure for 7 days caused significant increase in the total cell count in BAL fluid, including leukocytes, neutrophils and macrophages as compared to an air exposed control group.
Male C57BL/6 mice aged 8–10 weeks were obtained from the animal facility of Glenmark Pharmaceuticals Ltd. All animal experiments were approved by IAEC (institutional Animal Ethics Committee) as per the guideline set up by The Committee for the Purpose of Control and Supervision of Experiments on Animals (CPCSEA), India (CPCSEA is a statutory Committee of Department of Animal Husbandry and Dairying (DAHD), Ministry of Fisheries, Animal Husbandry and Dairying (MoFAH&D), India and constituted under the Prevention of Cruelty to Animals (PCA) Act, 1960., India). All animal experiments and procedures were performed in accordance with CPCSEA and IAEC guidelines and regulations (Registration number 231/2000/CPCSEA).In addition to that, all animal experimentation complies with the guidelines of Animal Research: Reporting In Vivo Experiments (ARRIVE). Male C57BL/6 mice were exposed to either room air or cigarette smoke (CS) from 10 cigarettes (Kentucky Research Cigarettes 3R4F) for 50 min, twice daily for 7 days in a whole body box exposure system (SIU24, ProMech Lab Holding AB, Sweden). […] All aspirates of BAL were pooled and total number of cells were determined using a hemocytometer. […]

[5] = system: Ca Channel (L type); assay: Cerep panel, Ca channel (L type)
Description: as §1

[6] = system: IL-17 release from COPD patient whole blood; assay: IL-17 release, whole blood from COPD patients; type: cell-based; settings: Homo sapiens; TCR stimulated, n = 5; read-out: IL-17 IC50, COPD patient's sample: WB
Description: Whole blood and BAL samples from COPD patients were obtained from Multispecialty hospital, Mumbai post approval from ethics committee and informed consent of patients. 30–40 mL Broncho alveolar lavage (BALf) was collected per patient and stored in ice. Blood was collected in heparin vaccutainer as per approved protocol. Both the samples were processed within 2 h of collection. BALF was passed through 100-µm and 40-µm cell strainer to remove debris and mucus, the samples were centrifuged and the cells were re-suspended in RPMI 1640 complete medium. PBMCs from blood were isolated using Histopaque-1077 by density gradient centrifugation. Isolated BAL cells and PBMCs were seeded in 96 well coated with 10 µg/ml anti-CD3 and 2 µg/ml anti-CD2. Cells were further treated with different concentration of test compound for 60 min followed by stimulation with 20 µg/ml anti-CD28 and incubated for 48–72 h. The supernatant was used for estimating IL-17 by ELISA.

[7] = system: IL-17A release in canine PBMC; assay: IL-17A release, canine PBMC, anti-CD3 + anti-CD28; type: cell-based; settings: Canis lupus familiaris, anti-CD3 + anti-CD28, n = 6, read-out: Cellular activity: Canine IC50, IL-17A release
Description: Inhibition of RORγ by PCCR-1 was also estimated in a functional assay by measuring the inhibition of Th17 dependent cytokine IL-17A release in human peripheral blood mononuclear cells (PBMCs), mouse splenocytes and canine PBMC stimulated with their respective anti-CD3 and anti-CD28 antibodies.
Canine PBMCs were procured from Lonza (Cologue, Germany). Frozen canine PBMCs was quickly thawed in a 37 °C water bath and cells were seeded in 96-well plates coated with canine anti-CD3mAb (30 µg/mL). Cells were further treated with the compound similar to human PBMC with co-stimulation of canine anti-CD28 mAb (10 µg/mL). After 72 h of incubation the supernatant was collected for estimating canine IL-17 by ELISA.

[8] = system: T1, NK3; assay: Cerep panel, NK3
T1 construct: Eurofins Cerep
Description: as §1

[9] = system: GABA Cl; assay: Cerep panel, GABA Cl
Description: as §1

Chain of RORα (P35398 272-523 limits assumed): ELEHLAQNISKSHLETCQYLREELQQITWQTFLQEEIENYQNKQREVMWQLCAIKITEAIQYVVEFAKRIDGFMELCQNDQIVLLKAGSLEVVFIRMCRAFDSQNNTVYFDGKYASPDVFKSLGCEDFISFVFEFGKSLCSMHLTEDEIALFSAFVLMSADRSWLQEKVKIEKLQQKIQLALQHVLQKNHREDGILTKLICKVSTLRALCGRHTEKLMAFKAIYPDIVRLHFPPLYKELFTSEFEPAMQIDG

CCn1c(C(C)(C)Oc2ccc(F)cc2F)nc2cc(NC(=O)Cc3ccc(S(=O)(=O)CC)cc3)ccc21 [PCCR-1]
effect in transactivation assays for RORα inhibition [1]: no effect
hFXR (antagonism) [2]: ~10 µM
mPPARγ(agonism) [3]: V wk
inhibition of total leukocytes in BAL fluid ([4]; intranasal once a day for 7 days, between 1 µg and 50 µg/animal): dose dependent inhibition
cigarette smoke mediated increase in neutrophil and macrophage counts in BAL fluid ([4]; intranasal, 10, 30, 50 and 100 µg per mouse): significantly obtunded
IC50 [5]: 2.6 µM
IC50 [6]: 5.05 µM
IC50 [7]: 0.504 µM
% inhibition at 10 µM NK3 [8]: 56%
IC50 [9]: 4.8 µM
